# According to patent US20150004134A1, “TREATMENT OF CANCER WITH HETEROCYCLIC INHIBITORS OF GLUTAMINASE” (Calithera Biosciences, Inc., priority 2012, published 2015):
# Read-outs that look alike come from different tables or passages of the source.
# Key:
# [1] = biological target: T1, recombinant form of Glutaminase 1 (GAC) (Homo sapiens, UniProt O94925); assay: Recombinant Enzyme Assay - Time Dependence (60 min preincubation); format: biochemical
# T1 sequence (O94925 137-598 isoform O94925-3 limits assumed): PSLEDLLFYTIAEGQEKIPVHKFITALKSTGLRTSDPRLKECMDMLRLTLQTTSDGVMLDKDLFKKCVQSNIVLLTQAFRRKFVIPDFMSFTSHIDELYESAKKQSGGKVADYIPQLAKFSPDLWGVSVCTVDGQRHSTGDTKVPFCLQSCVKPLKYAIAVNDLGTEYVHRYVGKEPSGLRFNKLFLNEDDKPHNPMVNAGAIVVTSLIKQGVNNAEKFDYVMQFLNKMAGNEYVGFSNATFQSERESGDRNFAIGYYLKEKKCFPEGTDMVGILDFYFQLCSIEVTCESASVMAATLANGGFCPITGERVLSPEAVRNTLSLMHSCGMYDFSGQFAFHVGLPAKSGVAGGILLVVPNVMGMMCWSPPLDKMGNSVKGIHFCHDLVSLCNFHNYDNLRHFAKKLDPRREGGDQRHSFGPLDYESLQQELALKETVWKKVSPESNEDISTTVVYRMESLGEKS
# Procedure: The enzyme/compound mix was sealed with sealing foil (USA Scientific) and allowed to incubate, with mild agitation, for 60 minutes at 20° C. Enzymatic reaction was started with the addition of 50 μL of substrate solution (50 mM Tris-HCl pH 8.0, 0.2 mM EDTA, 150 mM K2HPO4, 0.1 mg/ml BSA, 1 mM DTT, 20 mM L-glutamine, 2 mM NAD^+, and 10 ppm antifoam) and read in a Molecular Devices M5 plate reader at 20° C. The plate reader was configured to read absorbance (=340 nm) in kinetic mode for 15 minutes. Data was recorded as milli-absorbance units per minute and slopes were compared to a control compound and a DMSO-only control on the same plate. Compounds with slopes less than the DMSO control were considered inhibitors and plate variability was assessed using the control compound.
# [2] = tested on: P493-6 (myc "on") cells; assay: Cell Proliferation Assay; format: cell-based; details: P493-6, 72 h, read-out: Cell prolif P493 72 h IC50, P493-6 cells, 72 h
# In short: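 P493-6 cells with myc on, 10,000 per well in RPMI/10% FBS, exposed to serially diluted compound (0.5% DMSO final) for 72 h at 37 °C, 5% CO2. Antiproliferative effect read by Cell Titer Glo luminescence or Viacount FACS viability count.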
# [3] = read-out: GAC Delta N2 IC50 60 min preinc
Structure (SMILES),IC50 [1] [nM],"IC50 [1, 3] [nM]",IC50 [2] [nM]
O=C(Cc1cccc(Br)c1)Nc1nnc(CCCCc2nnc(NC(=O)Cc3cccc(Br)c3)s2)s1 [Compound 284],50,–,–
O=C(Cc1ccccc1)Nc1ccc(CCCCc2nnc(NC(=O)Cc3cccc(Cn4cccn4)c3)s2)nn1 [Compound 395],–,4,15
COc1cccc(CC(=O)Nc2nnc(CCCCc3ccc(NC(=O)Cc4ccccc4)nn3)s2)c1OC [Compound 397],–,8,41
COc1cc(CC(=O)Nc2nnc(CCCCc3ccc(NC(=O)Cc4ccccc4)nn3)s2)cc(OC)c1 [Compound 398],–,4,23
CC(C)(C)OC(=O)Nc1ccc(CC(=O)Nc2nnc(CCCCc3ccc(NC(=O)Cc4ccccc4)nn3)s2)cc1 [Compound 400],–,15,53
CC(C)(C)OC(=O)NCc1ccc(CC(=O)Nc2nnc(CCCCc3ccc(NC(=O)Cc4ccccc4)nn3)s2)cc1 [Compound 401],–,5,11
COc1cccc(C(OC(=O)CCN2CCOCC2)C(=O)Nc2nnc(CCCCc3ccc(NC(=O)Cc4ccccc4)nn3)s2)c1 (stereo not drawn) [Compound 404],–,60,22
CN(C)Cc1cccc(CC(=O)Nc2nnc(CCCCc3ccc(NC(=O)Cc4ccccc4)nn3)s2)c1 [Compound 406],–,16,270
CNCc1cccc(CC(=O)Nc2nnc(CCCCc3ccc(NC(=O)Cc4ccccc4)nn3)s2)c1 [Compound 408],–,18,190
Nc1ccc(CC(=O)Nc2nnc(CCCCc3ccc(NC(=O)Cc4ccccc4)nn3)s2)cc1 [Compound 410],–,9,57
CC(C)(C)OC(=O)NCc1cccc(CC(=O)Nc2nnc(CCCCc3ccc(N)nn3)s2)c1 [Compound 412],–,28,110
O=C(Cc1ccccc1)Nc1ccc(CCCCc2nnc(NC(=O)Cc3cccc(OC(F)(F)F)c3)s2)nn1 [Compound 413],–,7,45
O=C(Cc1ccccc1)Nc1ccc(CCCCc2nnc(NC(=O)Cc3cc(F)cc(C(F)(F)F)c3)s2)nn1 [Compound 414],–,10,58
COc1cccc(CNC(=O)Nc2nnc(CCCCc3nnc(NC(=O)Cc4ccccc4)s3)s2)c1 [Compound 416],–,55,350
CCNC(=O)Nc1nnc(CCCCc2ccc(NC(=O)Cc3ccccc3)nn2)s1 [Compound 418],–,140,320
O=C(Cc1ccccc1)Nc1ccc(CCCCc2nnc(NC(=O)Nc3ccccc3)s2)nn1 [Compound 419],–,24,64
CCNC(=O)Nc1ccc(CCCCc2nnc(NC(=O)Cc3cccc(CN)c3)s2)nn1 [Compound 421],–,290,160
NCc1cccc(CC(=O)Nc2nnc(CCCCc3ccc(NC(=O)C(O)c4cccc(Cl)c4)nn3)s2)c1 (stereo not drawn) [Compound 423],–,22,42
CC(=O)Nc1ccc(CCCCc2nnc(NC(=O)Cc3cccc(CNC(=O)OC(C)(C)C)c3)s2)nn1 [Compound 424],–,6,8
CC(=O)Nc1ccc(CCCCc2nnc(NC(=O)Cc3cccc(CN)c3)s2)nn1 [Compound 425],–,86,15
CC(C)(C)OC(=O)NCCc1cccc(CC(=O)Nc2nnc(CCCCc3ccc(NC(=O)Cc4ccccc4)nn3)s2)c1 [Compound 429],–,4,7
CN(C)CC(=O)Nc1ccc(CC(=O)Nc2nnc(CCCCc3ccc(NC(=O)Cc4ccccc4)nn3)s2)cc1 [Compound 430],–,9,27
CC(=O)NCc1cccc(CC(=O)Nc2nnc(CCCCc3ccc(NC(=O)Cc4ccccc4)nn3)s2)c1 [Compound 431],–,7,26
CC(C)CC(=O)NCc1cccc(CC(=O)Nc2nnc(CCCCc3ccc(NC(=O)Cc4ccccc4)nn3)s2)c1 [Compound 433],–,2,7
CN(C)CC(=O)NCc1cccc(CC(=O)Nc2nnc(CCCCc3ccc(NC(=O)Cc4ccccc4)nn3)s2)c1 [Compound 434],–,5,17
O=C(CN1CCOCC1)Nc1cccc(CC(=O)Nc2nnc(CCCCc3ccc(NC(=O)Cc4ccccc4)nn3)s2)c1 [Compound 440],–,8,31
NCCc1cccc(CC(=O)Nc2nnc(CCCCc3ccc(NC(=O)Cc4ccccc4)nn3)s2)c1 [Compound 441],–,11,180

Structure (SMILES),IC50 [1] [nM],"IC50 [1, 3] [nM]",IC50 [2] [nM]
O=C(Cc1ccccc1)Nc1ccc(CCCCc2nnc(NC(=O)Cc3c(F)cccc3F)s2)nn1 [Compound 443],–,11,100
CN(Cc1cccc(CC(=O)Nc2nnc(CCCCc3ccc(NC(=O)Cc4ccccc4)nn3)s2)c1)C(=O)Cc1ccccc1 [Compound 444],–,3,8
CC(=O)N(C)Cc1cccc(CC(=O)Nc2nnc(CCCCc3ccc(NC(=O)Cc4ccccc4)nn3)s2)c1 [Compound 445],–,4,22
O=C(Cc1cccc(Cl)c1)Nc1ccc(CCCCc2nnc(NC(=O)C(OC(=O)Cc3cccc(Cl)c3)c3cccc(Cl)c3)s2)nn1 (stereo not drawn) [Compound 449],–,110,120
O=C(Cc1ccccc1)Nc1ccc(CCCCc2nnc(NC(=O)Cc3cccc(Oc4ccccc4)c3)s2)nn1 [Compound 450],–,6,42
CC(=O)Nc1cccc(CC(=O)Nc2nnc(CCCCc3ccc(NC(=O)Cc4ccccc4)nn3)s2)c1 [Compound 451],–,3,56
CS(=O)(=O)NCc1cccc(CC(=O)Nc2nnc(CCCCc3ccc(NC(=O)Cc4ccccc4)nn3)s2)c1 [Compound 452],–,4,49
CCNC(=O)NCc1cccc(CC(=O)Nc2nnc(CCCCc3ccc(NC(=O)Cc4ccccc4)nn3)s2)c1 [Compound 453],–,3,15
O=C(Cc1ccccc1)Nc1ccc(CCCCc2nnc(NC(=O)Cc3cccc(CCNC(=O)c4ccccc4)c3)s2)nn1 [Compound 455],–,3,12
CCOC(=O)Cc1cccc(CC(=O)Nc2nnc(CCCCc3ccc(NC(=O)Cc4ccccc4)nn3)s2)c1 [Compound 456],–,3,24
CN(C)CC(=O)Nc1cccc(CC(=O)Nc2nnc(CCCCc3ccc(NC(=O)Cc4ccccc4)nn3)s2)c1 [Compound 457],–,9,110
CC(=O)Nc1ccc(CCCCc2nnc(NC(=O)Cc3cccc(CNC(=O)c4ccccc4)c3)s2)nn1 [Compound 460],–,5,31
CC(=O)Nc1ccc(CCCCc2nnc(NC(=O)Cc3cccc(CNC(=O)Cc4ccccc4)c3)s2)nn1 [Compound 462],–,6,53
Nc1ccc(CCCCc2nnc(NC(=O)Cc3cccc(CNC(=O)c4ccccc4)c3)s2)nn1 [Compound 463],–,52,960
CC(C)(C)OC(=O)NCc1cccc(CC(=O)Nc2nnc(CCCCc3ccc(NC(=O)Cc4cccc(OC(F)(F)F)c4)nn3)s2)c1 [Compound 586],–,13,–
O=C(Cc1ccccc1OC(F)(F)F)Nc1ccc(CCCCc2nnc(NC(=O)Cc3ccccc3)s2)nn1 [Compound 614],–,8,–
O=C(Cc1ccc(OC(F)(F)F)cc1)Nc1ccc(CCCCc2nnc(NC(=O)Cc3ccccc3)s2)nn1 [Compound 615],–,9,–
CC(C(=O)Nc1nnc(CCCCc2ccc(NC(=O)Cc3cccc(OC(F)(F)F)c3)nn2)s1)c1ccccc1 (stereo not drawn) [Compound 636],–,8,–
COc1cccc(CC(=O)Nc2nnc(CCCCc3ccc(NC(=O)Cc4cccc(OC(F)(F)F)c4)nn3)s2)c1 [Compound 658],–,5,–
O=C(Cc1cccc(OC(F)(F)F)c1)Nc1ccc(CCCCc2nnc(NC(=O)Cc3cc(F)ccc3F)s2)nn1 [Compound 659],–,10,–
O=C(Cc1cccc(OC(F)(F)F)c1)Nc1ccc(CCCCc2nnc(NC(=O)Cc3cc(F)cc(F)c3)s2)nn1 [Compound 662],–,7,–
O=C(Cc1cccc(OC(F)(F)F)c1)Nc1ccc(CCCCc2nnc(NC(=O)Cc3cccc(OC(F)F)c3)s2)nn1 [Compound 668],–,9,–
O=C(Cc1cccc(OC(F)(F)F)c1)Nc1ccc(CCCCc2nnc(NC(=O)Cc3cccc(OCC(F)(F)F)c3)s2)nn1 [Compound 669],–,21,–
O=C(Cc1cccc(OC(F)(F)F)c1)Nc1ccc(CCCCc2nnc(NC(=O)Cc3ccncc3)s2)nn1 [Compound 672],–,10,–
O=C(Cc1cccc(OC(F)(F)F)c1)Nc1ccc(CCCCc2nnc(NC(=O)Cc3ccccc3F)s2)nn1 [Compound 673],–,6,–
CSc1cccc(CC(=O)Nc2nnc(CCCCc3ccc(NC(=O)Cc4cccc(OC(F)(F)F)c4)nn3)s2)c1 [Compound 674],–,8,–
